Common to all, as to assay: NCI anticancer screen, dose series, 48 h
The test system of assay [1] is LXFL 529.
The subject of assay [2] is DMS-273.
For assay [3], the system named is KM-20L2.
Assay [4] has as its system SNB-78.
In assay [5] the test system is M19-MEL.
In assay [6] the test system is DMS-114.
Assay [7] deals with RXF 631.
Assay [8] concerns XF498.
Assay [9] relates to HOP-18.

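Each compound was tested at five concentrations against cells in 96-well plates for 48 hours. Abbreviation: GI50, concentration required for 50% inhibition of growth.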 Calls of active or inactive are those of the source. Rule as the data show it: active = GI50 up to about 1.1 µM and inactive = higher.

With `CC1=C2C(O)C(C(C)CO)C(O)CC2(C)C(O)CC1` (centres undefined), the GI50 in assay [1], in assay [2], in assay [3], in assay [4], in [5] and in assay [6] was > 100 µM (inactive) in each case. Further, the GI50 in assay [7] is > 100 µM (inactive).
For the compound `CCOC(=O)/C(=C/c1ccccn1)C(=O)c1ccccc1`, the GI50 is 11.1 µM (inactive) in assay [1]; 12.1 µM (inactive) in assay [2]; 15.5 µM (inactive) in assay [3]; 16.1 µM (inactive) in assay [8]; 18.3 µM (inactive) in assay [9]; 17 µM (inactive) in assay [4]. Moreover, the values for the GI50 in assay [5], in [6] and in assay [7] were 13.5 µM (inactive), 14.3 µM (inactive) and 13.6 µM (inactive), respectively.
Consider `Nc1cc2c(cc1[N+](=O)[O-])[nH]c1c(-c3ccccc3)nccc12`, for which the GI50 in [2] was 18.1 µM (inactive); in assay [3], 23.6 µM (inactive); in [8], 40 µM (inactive); in assay [9] it was 8.41 µM (inactive); in [4], 11.2 µM (inactive); in assay [5], 17.7 µM (inactive). Further, the GI50 in [6] is 12.7 µM (inactive).
As for `O/N=C1/C(=C/c2ccc(F)cc2)CCCC1C(NO)c1ccc(F)cc1` (centres undefined), the GI50 in assay [1] was 38.4 µM (inactive); in assay [2] it was 40.6 µM (inactive); in assay [3], 28.8 µM (inactive); in [8], 64 µM (inactive); in assay [9], 21.1 µM (inactive); in assay [4], 67 µM (inactive). The results for the GI50 in assay [5], in assay [6] and in assay [7] were 38.3 µM (inactive), 29.9 µM (inactive) and 33 µM (inactive), respectively.
As for `Cc1cc(O)nc(NN2C(Cl)C(=O)C2c2cccc(O)c2)n1` (centres undefined), the GI50 was 5 µM (inactive) in assay [1]; 3.13 µM (inactive) in assay [2]; 10.3 µM (inactive) in assay [3]; 2.39 µM (inactive) in assay [9]; 7.43 µM (inactive) in assay [4]; 6.19 µM (inactive) in assay [5]. Besides, in [6], the GI50 is 5.11 µM (inactive).
Take `Cc1cc(NC(=O)C(=O)Cc2nc3ccccc3s2)ccc1Cl`: the GI50 in [1] is > 100 µM (inactive); in assay [2], > 100 µM (inactive); in assay [3] it was > 100 µM (inactive); in assay [8], > 100 µM (inactive); in assay [9] it was 21.8 µM (inactive); in assay [4], > 100 µM (inactive). For the same compound, the GI50 in [5] and in assay [6] was > 100 µM (inactive) in each case.
Take `Cc1cccc(/N=C2\NC(=O)C(CC(=O)Nc3ccc(C)cc3C)S2)c1` (centres undefined): the GI50 in assay [1] is > 100 µM (inactive); in assay [2], > 100 µM (inactive); in [3], 97.7 µM (inactive); in assay [8] it was 53.1 µM (inactive); in assay [4], > 100 µM (inactive); in [5], > 100 µM (inactive). Besides, the GI50 in assay [6] is 49.8 µM (inactive).
On to `CC(=O)OCC1OC(Nc2nc(O)n(C)c(=O)c2-c2csc(N)n2)C(OC(C)=O)C(OC(C)=O)C1OC(C)=O` (centres undefined), for which the GI50 in [1] is > 100 µM (inactive); in assay [3], > 100 µM (inactive); in assay [9], 20 µM (inactive); in assay [4], > 100 µM (inactive); in assay [5], > 100 µM (inactive); in assay [6], > 100 µM (inactive). Moreover, in assay [7], the GI50 is > 100 µM (inactive).
Turning to `NC(CO)c1ccccc1` (centres undefined), the GI50 in assay [1] was > 100 µM (inactive); in assay [2], > 100 µM (inactive); in assay [3], > 100 µM (inactive); in [8] it was > 100 µM (inactive); in assay [9] it was 24.7 µM (inactive); in assay [4] it was > 100 µM (inactive). Besides, the GI50 in assay [6] was > 100 µM (inactive).
In the case of `COc1cccc2c1C(=O)c1c(O)c3c(c(O)c1C2=O)C[C@@](O)(C(=O)CO)CC3OC1CC(NCCCCC(OC(C)=O)OC(C)=O)C(O)C(C)O1` (some centres undefined), the GI50 in assay [1] is 0.00214 µM (active); in assay [3], 0.00242 µM (active); in assay [9], 0.0033 µM (active); in assay [4], 0.00209 µM (active); in [5], 0.00345 µM (active); in [6], 0.00402 µM (active). Also, the GI50 in assay [7] was 0.00137 µM (active).
Turning to `COc1ccc2[nH]c3c(C)c4cc[n+](C)cc4c(C)c3c2c1`, the GI50 in [2] was 1.09 µM (active); in assay [3] it was 3.17 µM (inactive); in assay [9], 3.59 µM (inactive); in assay [4], 0.571 µM (active); in assay [5], 0.944 µM (active); in [6] it was 0.412 µM (active).
`O=[N+]([O-])c1cccc(C2=NOC3CCCC23)c1` (centres undefined): the GI50 in [1], in assay [2], in [9], in assay [4], in assay [5] and in assay [6] was > 100 µM (inactive) in each case.
As to `Cc1c2ccc3ccccc3c2c[n+]2ccccc12`, the GI50 in [1] was 5.36 µM (inactive); in [2], 16.2 µM (inactive); in assay [3], 19.7 µM (inactive); in [4] it was 28.8 µM (inactive); in assay [5], 4.48 µM (inactive); in [6] it was 4.35 µM (inactive).
In the case of `O=NN(CCCl)C(=O)NC1CCC(CC2CCC(NC(=O)N(CCCl)N=O)CC2)CC1` (centres undefined), the GI50 in assay [1] was 36.1 µM (inactive); in [2], 21.9 µM (inactive); in assay [3], > 74.1 µM (inactive); in [8] it was 13 µM (inactive); in assay [9], > 38 µM (inactive); in assay [4], 29.5 µM (inactive). In addition, the GI50 in [5] is 2.7 µM (inactive); in [6], 24.4 µM (inactive); in [7] it was 41.7 µM (inactive).
As to `CCOC(=O)C12CC1(C(=O)OCC)C1CCC2C1` (centres undefined), the GI50 in assay [1] is > 100 µM (inactive); in [2], > 100 µM (inactive); in [9], > 100 µM (inactive); in [5] it was > 100 µM (inactive); in assay [6], 74.3 µM (inactive); in assay [7] it was > 100 µM (inactive).
On to `COc1ccc(/C(=N\NC(=O)NN)C(c2ccc(OC)cc2)C2(O)C(=O)Nc3c(Cl)cc(Cl)cc32)cc1` (centres undefined), for which the GI50 in assay [1], in [3], in assay [8], in assay [9], in [4] and in [5] was > 100 µM (inactive) in each case. In addition, the GI50 was 90.8 µM (inactive) in [6] and > 100 µM (inactive) in assay [7].
Regarding `COC(=O)C1=C(C)N(NC(=O)c2ccccc2)C2(O)CCCC(=O)C12C` (centres undefined), the GI50 in assay [1] was > 100 µM (inactive); in assay [2], > 100 µM (inactive); in assay [3] it was > 100 µM (inactive); in assay [8], > 100 µM (inactive); in assay [9], < 0.01 µM (active); in [4], > 100 µM (inactive). Besides, the GI50 in assay [6] and in [7] was > 100 µM (inactive) throughout.
With `CC(C)c1ccc(O)c(=O)cc1` [GAMMA-THUJAPLICIN], the GI50 in assay [1] was 5.53 µM (inactive); in [2], 3.89 µM (inactive); in assay [3], 3.99 µM (inactive); in assay [8], 15.1 µM (inactive); in assay [9] it was 5.62 µM (inactive); in [4] it was 20 µM (inactive). Further, the GI50 in [5] is 6.46 µM (inactive); in assay [6], 2.92 µM (inactive).
As for `C/C(=C1/N=C(c2cc([N+](=O)[O-])ccc2Cl)N(C2=CC=C(Cl)CC2)C1=O)c1cc2ccccc2oc1=O`, the GI50 was 13.1 µM (inactive) in assay [1]; 18.7 µM (inactive) in [3]; 21.2 µM (inactive) in assay [9]; 47.9 µM (inactive) in assay [4]; 45.5 µM (inactive) in assay [5]; 19.3 µM (inactive) in [6]. Besides, the GI50 in [7] was 56 µM (inactive).
On to `CC(=O)OC(CCC1(C)OC1COc1ccc(CCNC(=O)C=C(C)C)cc1)C(C)(C)OC(C)=O` (centres undefined), for which the GI50 in assay [1] was 12.7 µM (inactive); in assay [2] it was 22.5 µM (inactive); in assay [3], 62.1 µM (inactive); in assay [8], 23.2 µM (inactive); in [9], > 100 µM (inactive); in [4], 24.5 µM (inactive). In addition, the GI50 is 19.7 µM (inactive) in [5] and 0.19 µM (active) in assay [6].
For the compound `O=C1CCCn2c3ccccc3c3ccnc1c32`, the GI50 was 46.6 µM (inactive) in assay [2]; 51.3 µM (inactive) in assay [3]; 25.4 µM (inactive) in assay [8]; 58.3 µM (inactive) in assay [9]; 44.8 µM (inactive) in [4]; 41.5 µM (inactive) in [5]. Further, the GI50 in assay [6] was 35 µM (inactive).

The values above are taken from ChEMBL document CHEMBL1201862, “PubChem BioAssay data set” (2004).
